According to patent US8445680B2, “Tetrahydrothieno pyridines” (Merck Sharp & Dohme Corp., priority 2008, dated 2013):
Structures can show the parent of a compound that is named as a salt.

Molecular target: T1, FLAG-tagged full length PHD2 (Homo sapiens, UniProt Q9GZT9)
T1 construct: FLAG-tagged full length PHD2; FLAG; made in house; host or cells: baculovirus-infected Sf9 cells
Test: PHD2 inhibition assay (time resolved fluorescence, HIF-1α peptide hydroxylation, VHL detection)
Type: biochemical
Settings: 0.2 μM 2-oxoglutarate, 0.5 μM HIF-1α peptide, 2 hr at room temperature; read-out: PHD2 Activity (PHD2 binding activity expressed as IC50)
Method: To each well of a 96-well plate was added 1 μL of test compound in DMSO and 20 μl of assay buffer (50 mM Tris pH 7.4/0.01% Tween-20/0.1 mg/ml bovine serum albumin/10 μM ferrous sulfate/1 mM sodium ascorbate/20 μg/ml catalase) containing 0.15 μg/ml FLAG-tagged full length PHD2 expressed in and purified from baculovirus-infected Sf9 cells. After a 30 min preincubation at room temperature, the enzymatic reactions were initiated by the addition of 4 μL of substrates (final concentrations of 0.2 μM 2-oxoglutarate and 0.5 μM HIF-1α peptide biotinyl-[…]).

T1 sequence (Q9GZT9 whole entry): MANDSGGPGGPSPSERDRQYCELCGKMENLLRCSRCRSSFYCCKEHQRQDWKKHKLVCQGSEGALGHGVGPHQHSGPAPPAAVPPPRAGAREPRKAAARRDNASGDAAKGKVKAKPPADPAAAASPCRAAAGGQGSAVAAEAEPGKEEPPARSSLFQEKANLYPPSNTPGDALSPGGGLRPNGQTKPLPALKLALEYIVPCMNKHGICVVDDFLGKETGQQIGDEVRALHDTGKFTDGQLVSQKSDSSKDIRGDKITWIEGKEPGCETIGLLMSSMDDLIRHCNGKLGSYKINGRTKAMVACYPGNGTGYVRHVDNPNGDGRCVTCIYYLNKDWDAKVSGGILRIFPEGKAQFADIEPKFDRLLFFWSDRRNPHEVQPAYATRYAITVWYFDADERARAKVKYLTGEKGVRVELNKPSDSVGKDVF

| IC50 | Compound |
| --- | --- |
| ≤ 10 nM | Cc1ccc(-c2ccc(Cn3c4c(c(O)c(C(=O)NCC(=O)O)c3=O)CS(=O)(=O)C4)cc2)cc1 [Example 58, N-({4-hydroxy-1-[(4′-methylbiphenyl-4-yl)methyl]-6,6-dioxido-2-oxo-1,2,5,7-tetrahydrothieno[3,4-b]pyridin-3-yl}carbonyl)glycine] |
| ≤ 10 nM | O=C(O)CNC(=O)c1c(O)c2c(n(Cc3cccc(Cl)c3)c1=O)CSC2 [Example 14, N-{[1-(3-chlorobenzyl)-4-hydroxy-2-oxo-1,2,5,7-tetrahydrothieno[3,4-b]pyridin-3-yl]carbonyl}glycine] |
| ≤ 10 nM | O=C(O)CNC(=O)c1c(O)c2c(n(Cc3ccc(-c4ccccc4C(F)(F)F)nc3)c1=O)CSC2 [Example 45, N-{[4-hydroxy-2-oxo-1-({6-[2-(trifluoromethyl)phenyl]pyridinium-3-yl}methyl)-1,2,5,7-tetrahydrothieno[3,4-b]pyridin-3-yl]carbonyl}glycine trifluoroacetate] |
| ≤ 10 nM | CSc1ccccc1-c1cnc(Cn2c3c(c(O)c(C(=O)NCC(=O)O)c2=O)CSC3)cn1 [Example 55, N-{[4-hydroxy-1-({5-[2-(methylthio)phenyl]pyrazin-2-yl}methyl)-2-oxo-1,2,5,7-tetrahydrothieno[3,4-b]pyridin-3-yl]carbonyl}glycine] |
| ≤ 10 nM | O=C(O)CNC(=O)c1c(O)c2c(n(Cc3ccc(-c4ccc(Cl)cc4)cc3)c1=O)CSC2 [Example 30, N-({1-[(4′-chlorobiphenyl-4-yl)methyl]-4-hydroxy-2-oxo-1,2,5,7-tetrahydrothieno[3,4-b]pyridin-3-yl}carbonyl)glycine] |
| ≤ 10 nM | O=C(O)CNC(=O)c1c(O)c2c(n(Cc3ccc(-c4ccn[nH]4)cc3)c1=O)CSC2 [Example 27, N-({4-hydroxy-2-oxo-1-[4-(1H-pyrazol-5-yl)benzyl]-1,2,5,7-tetrahydrothieno[3,4-b]pyridin-3-yl}carbonyl)glycine] |
| ≤ 10 nM | O=C(O)CNC(=O)c1c(O)c2c(n(Cc3ccc(Br)cc3)c1=O)CSC2 [Example 2] |
| ≤ 10 nM | Cc1cc(Cl)ccc1Cn1c2c(c(O)c(C(=O)NCC(=O)O)c1=O)CSC2 [Example 15, N-{[1-(4-chloro-2-methylbenzyl)-4-hydroxy-2-oxo-1,2,5,7-tetrahydrothieno[3,4-b]pyridin-3-yl]carbonyl}glycine] |
| ≤ 10 nM | Cc1ccccc1-c1ccc(Cn2c3c(c(O)c(C(=O)NCC(=O)O)c2=O)CSC3)cn1 [Example 48, N-[(4-hydroxy-1-{[6-(2-methylphenyl)pyridinium-3-yl-methyl}-2-oxo-1,2,5,7-tetrahydrothieno[3,4-b]pyridin-3-yl)carbonyl]glycine trifluoroacetate] |
| ≤ 10 nM | O=C(O)CNC(=O)c1c(O)c2c(n(Cc3nc4ccccc4s3)c1=O)CSC2 [Example 11, N-{[1-(1,3-benzothiazol-2-ylmethyl)-4-hydroxy-2-oxo-1,2,5,7-tetrahydrothieno[3,4-b]pyridin-3-yl]carbonyl]glycine] |
| 10 to 100 nM | O=C(O)CNC(=O)c1c(O)c2c(n(Cc3cc(F)cc(C(F)(F)F)c3)c1=O)CSC2 [Example 13, N-({l-[3-fluoro-5-(trifluoromethyl)benzyl]-4-hydroxy-2-oxo-1,2,5,7-tetrahydrothieno[3,4-b]pyridin-3-yl]carbonyl)glycine] |
| ≤ 10 nM | O=C(O)CNC(=O)c1c(O)c2c(n(Cc3ccc(OC(F)(F)F)cc3)c1=O)CSC2 [Example 20, N-({4-hydroxy-2-oxo-1-[4-(trifluoromethoxy)benzyl]-1,2,5,7-tetrahydrothieno[3,4-b]pyridin-3-yl}carbonyl)glycine] |
| ≤ 10 nM | CS(=O)(=O)c1ccc(Cn2c3c(c(O)c(C(=O)NCC(=O)O)c2=O)CSC3)cc1 [Example 6, N-({4-hydroxy-1-[4-(methylsulfonyl)benzyl]-2-oxo-1,2,5,7-tetrahydrothieno[3,4-d]pyridin-3-yl]carbonyl)glycine] |
| ≤ 10 nM | O=C(O)CNC(=O)c1c(O)c2c(n(Cc3ccc(-c4cccc5ncccc45)cc3)c1=O)CSC2 [Example 52, N-{[4-hydroxy-2-oxo-1-(4-quinolinium-5-ylbenzyl)-1,2,5,7-tetrahydrothieno[3,4-b]pyridin-3-yl]carbonyl}glycine chloride] |
| ≤ 10 nM | N#Cc1cccc(-c2ccc(Cn3c4c(c(O)c(C(=O)NCC(=O)O)c3=O)CSC4)cc2)c1 [Example 46, N-({1-[(3′-cyanobiphenyl-4-yl)methyl]-4-hydroxy-2-oxo-1,2,5,7-tetrahydrothieno[3,4-b]pyridin-3-yl}carbonyl)glycine] |
| ≤ 10 nM | O=C(O)CNC(=O)c1c(O)c2c(n(Cc3cnc(-c4ccccc4C(F)(F)F)cn3)c1=O)CSC2 [Example 57, N-{[4-hydroxy-2-oxo-1-({5-[2-(trifluoromethyl)phenyl]pyrazin-2-yl}methyl)-1,2,5,7-tetrahydrothieno[3,4-b]pyridin-3-yl]carbonyl}glycine] |

| IC50 | Compound |
| --- | --- |
| ≤ 10 nM | O=C(O)CNC(=O)c1c(O)c2c(n(Cc3ccc(-c4cc(F)ccc4F)nc3)c1=O)CSC2 [Example 51, N-[(l-{[6-(2,5-difluorophenyl)pyridinium-3-yl]methyl}-4-hydroxy-2-oxo-1,2,5,7-tetrahydrothieno[3,4-6]pyridin-3-yl)carbonyl]glycine trifluoroacetate] |
| ≤ 10 nM | O=C(O)CNC(=O)c1c(O)c2c(n(Cc3ccc(-c4cccs4)cc3)c1=O)CSC2 [Example 35, N-({4-hydroxy-2-oxo-1-[4-(2-thienyl)benzyl]-1,2,5,7-tetrahydrothieno[3,4-b]pyridin-3-yl}carbonyl)glycine] |
| ≤ 10 nM | CCN(CC)C(=O)c1ccccc1-c1ccc(Cn2c3c(c(O)c(C(=O)NCC(=O)O)c2=O)CSC3)cc1 [Example 37, N-{[1-({2′-[(diethylamino)carbonyl]biphenyl-4-yl}methyl)-4-hydroxy-2-oxo-1,2,5,7-tetrahydrothieno[3,4-b]pyridin-3-yl]carbonyl}glycine] |
| 10 to 100 nM | O=C(O)CNC(=O)c1c(O)c2c(n(Cc3nc(-c4ccccc4)cs3)c1=O)CS(=O)(=O)C2 [Example 62, N-({4-hydroxy-6,6-dioxido-2-oxo-1-[(4-phenyl-1,3-thiazol-2-yl)methyl]-1,2,5,7-tetrahydrothieno[3,4-b]pyridin-3-yl}carbonyl)glycine] |
| ≤ 10 nM | O=C(O)CNC(=O)c1c(O)c2c(n(Cc3ccc(-c4ccc(C(F)(F)F)cc4)nc3)c1=O)CSC2 [Example 44, N-{[4-hydroxy-2-oxo-1-({6-[4-(trifluoromethyl)phenyl]pyridinium-3-yl}methyl)-1,2,5,7-tetrahydrothieno[3,4-b]pyridin-3-yl]caxbonyl}glycine trifluoroacetate] |
| ≤ 10 nM | CCOc1ccc(-c2ccc(Cn3c4c(c(O)c(C(=O)NCC(=O)O)c3=O)CSC4)cc2)cc1 [Example 34, N-({1-[(4′-ethoxybiphenyl-4-yl)methyl]-4-hydroxy-2-oxo-1,2,5,7-tetrahydrothieno[3,4-b]pyridin-3-yl}carbonyl)glycine] |
| ≤ 10 nM | O=C(O)CNC(=O)c1c(O)c2c(n(Cc3ccc(Cl)c(Cl)c3)c1=O)CSC2 [Example 19, N-{[1-(3,4-dichlorobenzyl)-4-hydroxy-2-oxo-1,2,5,7-tetrahydrothieno[3,4-b]pyridin-3-yl]carbonyl}glycine] |
| ≤ 10 nM | O=C(O)CNC(=O)c1c(O)c2c(n(Cc3noc(-c4ccccc4)n3)c1=O)CSC2 [Example 10, N-({4-hydroxy-2-oxo-1-[(5-phenyl-1,2,4-oxadiazol-3-yl)methyl]-1,2,5,7-tetrahydrothieno[3,4-b]pyridin-3-yl]carbonyl)glycine] |
| ≤ 10 nM | Cc1n[nH]c(C)c1-c1ccc(Cn2c3c(c(O)c(C(=O)NCC(=O)O)c2=O)CSC3)cc1 [Example 31, N-({1-[4-(3,5-dimethyl-1H-pyrazol-4-yl)benzyl]-4-hydroxy-2-oxo-1,2,5,7-tetrahydrothieno[3,4-b]pyridin-3-yl}carbonyl)glycine] |
| ≤ 10 nM | O=C(O)CNC(=O)c1c(O)c2c(n(Cc3ccc(C(F)(F)F)cc3)c1=O)CS(=O)(=O)C2 [Example 63, N-({4-hydroxy-6,6-dioxido-2-oxo-1-[4-(trifluoromethyl)benzyl]-1,2,5,7-tetrahydrothieno[3,4-6]pyridin-3-yl}carbonyl)glycine] |
| ≤ 10 nM | O=C(O)CNC(=O)c1c(O)c2c(n(Cc3ccc(Oc4ccc(F)cc4)cc3)c1=O)CSC2 [Example 32, N-({l-[4-(4-fluorophenoxy)benzyl]-4-hydroxy-2-oxo-1,2,5,7-tetrahydrothieno[3,4-b]pyridin-3-yl}carbonyl)glycine] |
| ≤ 10 nM | N#Cc1ccc(Cn2c3c(c(O)c(C(=O)NCC(=O)O)c2=O)CSC3)cc1 [Example 3, N-{[1-(4-cyanobenzyl)-4-hydroxy-2-oxo-1,2,5,7-tetrahydrothieno[3,4-b]pyridin-3-yl]carbonyl}glycine] |
| ≤ 10 nM | O=C(O)CNC(=O)c1c(O)c2c(n(Cc3ccc(C(F)(F)F)nc3)c1=O)CSC2 [Example 5, N-[(4-hydroxy-2-oxo-1-{[6-(trifluoromethyl)pyridin-3-yl]methyl]-1,2,5,7-tetrahydrothieno[3,4-b]pyridin-3-yl)carbonyl]glycine] |
| ≤ 10 nM | CC(C)c1ccc(Cn2c3c(c(O)c(C(=O)NCC(=O)O)c2=O)CS(=O)(=O)C3)cc1 [Example 61, N-{[4-hydroxy-1-(4-isopropylbenzyl)-6,6-dioxido-2-oxo-1,2,5,7-tetrahydrothieno[3,4-b]pyridin-3-yl]carbonyl}glycine] |
| ≤ 10 nM | O=C(O)CNC(=O)c1c(O)c2c(n(Cc3cc4ccccc4s3)c1=O)CSC2 [Example 22, N-{[1-(1-benzothien-2-ylmethyl)-4-hydroxy-2-oxo-1,2,5,7-tetrahydrothieno[3,4-b]pyridin-3-yl]carbonyl}glycine] |
